Experimental data as given in US20260355180A1, “COMPOSITIONS AND METHODS FOR SPLICEOSOME-TARGETED THERAPIES” (Institute for Cancer Research d/b/a The Research Institute …, priority 2022, published 2026).
Entries after “also recorded” stand apart in the source; their conditions may differ. Residues, ends and D or L forms follow the SMILES beside them. *: point of attachment. Cbz = O=C(OCc1ccccc1)*; CH2F = FC*

Legend:
ZBP1 reconstituted MEF = test: Rescue of PlaB-mediated cell death by RIPK3 inhibitor; assay type: cell-based, mouse; details: 2.5 nM PlaB, 18 hours, with RIPK3 inhibitor
Description: FIG. 5A-5E: SF3B1 perturbation upregulates A-RNA and Z-nucleic acids in MEFs. (FIG. 5A) 5 nM of PlaB induces A-RNA and Z-Nucleic acids in ΔZBP1 MEF cells. (FIG. 5B) Quantification of A-RNA and Z-Nucleic acids. […] Plots of signal intensity are mean±SEM, two-tailed unpaired Student's t test *p<0.05, ***p<0.001, ****p<0.0001. 18 hours of PlaB treatment for IF, WB and rescue experiments. IF: 5 nM PlaB, WB and rescue experiments: 2.5 nM PlaB.
Since induction of Z-nAs can result in ZBP1-dependent necroptosis, we analyzed induction of necroptosis in necroptotic competent MEFs using spliceosome inhibition. […] We also determined that MEFs ΔZBP1, WT, and Flag-ZBP1 cells treated with PlaB began dying within 24hours after treatment. With MEF Flag-ZBP1 cells showing only 20% survival after 24 hours (FIG. 16).

H82 cells = test: Restoration of cell survival by RIPK1 or caspase inhibition, H82; assay type: cell-based; details: H82 treated with PlaB plus inhibitor
Description: (§1) FIG. 8A-8B: Spliceosome Perturbation induces RIPK1-dependent apoptosis. (FIG. 8A) H82 and H446 cells were treated with PlaB, PlaB+Z-vad, PlaB+R3i, and PlaB+Z-Vad+R3i. H82 and H446 cells were treated with PlaB, PlaB+Z-vad, and PlaB+Necl.
(§2) In addition, our CRISPR-Cas9 KO of RIPK1 also rescues SCLC cell lines from PlaB induced toxicity.

H446 cells [1] = test: Restoration of cell survival by RIPK1 or caspase inhibition, H446; assay type: cell-based, human; details: H446 treated with PlaB plus inhibitor
Description: as §1, §2

H446 cells [2] = test: Immunofluorescence of A-RNA (J2) and Z-NA (Z22), H446; assay type: cell-based, human; details: low dose
Source text: FIG. 4A-4C: SF3B1 perturbation increases dsRNA and Z-nucleic acid levels in treated cells. […] (FIG. 4B) Quantification of A-RNA and Z-Nucleic acids. (FIG. 4C) Western blot showing induction of cleaved-PARP, pH2AX, and ZBP1, and the reduction of RIPK1 protein levels. Plots of signal intensity are mean±SEM, two-tailed unpaired Student's t test **p<0.01, ****p<0.0001.
Our observations led us to explore what caused the elevated IFN response. We used an immunofluorescence (IF) technique to determine if A-RNA was increased after PlaB treatment.

## Cc1cc(-c2cnc(N)c3c(-c4ccc5scnc5c4)csc23)n(C)n1 [GSK-843]
ZBP1 reconstituted MEF
  rescue of PlaB-mediated cell death (necroptosis): completely rescued; also recorded: successfully rescue

## CN1C(=O)C(Cc2c[nH]c3ccccc23)NC1=S (stereo not shown) [Nec-I, necrostatin I]
H82 cells
  cell survival: significantly restore cell survival
H446 cells [1]
  cell survival: significantly restore cell survival

## COC(=O)C[C@H](NC(=O)[C@H](C)NC(=O)[C@@H](NC(=O)OCc1ccccc1)C(C)C)C(=O)CF [Z-Vad FMK] (Cbz-Val-Ala-Asp(OMe)-CH2F)
H82 cells
  cell survival: significantly restore cell survival
H446 cells [1]
  cell survival: significantly restore cell survival

## NS(=O)(=O)c1ccc(S(=O)(=O)Nc2cccc3c(Cl)c[nH]c23)cc1 [indisulam]
H446 cells [2]; J2 antibody
  accumulation of A-RNA: induces accumulation
H446 cells [2]; Z22 antibody
  accumulation of Z-Nucleic acids: induces accumulation
